Assay results: ChEMBL document CHEMBL5725790, “Compositions and methods for the production of pyrimidine and pyridine compounds with BTK inhibitory activity” (2017)

Molecular target: Tyrosine-protein kinase BTK (Homo sapiens, UniProt Q06187)
Assay: Enzyme Assay: The following describes a microfluidic, off-chip mobility shift kinase assay used to measure inherent potency of compounds against BTK enzyme. Compounds described by embodiments of the present invention were assayed using this protocol and the data from the same is recorded in Table 2 within the column labeled: Time Dependent BTK Enzyme Assay IC50. […] Stopped reactions were monitored at −2 PSI, −3000 V/−700 V in a LabChip 3000 plate reader from Caliper Life Sciences, a PerkinElmer Company (Hopkinton, Mass.), and the activity was measured by off-chip mobility shift assay measuring the charge/mass difference between substrate and product resulting from peptide phosphorylation. IC50 and efficacy were determined by plotting log [Inhibitor] vs. % Activity in GeneData Screener (Basel, Switzerland). Compounds described by embodiments of the present invention were assayed using this protocol and the data from the same is recorded in Table 2 within the column labeled: Time Dependent […] BTK Enzyme Assay IC50.

Tyrosine-protein kinase BTK, sequence (Q06187 whole entry): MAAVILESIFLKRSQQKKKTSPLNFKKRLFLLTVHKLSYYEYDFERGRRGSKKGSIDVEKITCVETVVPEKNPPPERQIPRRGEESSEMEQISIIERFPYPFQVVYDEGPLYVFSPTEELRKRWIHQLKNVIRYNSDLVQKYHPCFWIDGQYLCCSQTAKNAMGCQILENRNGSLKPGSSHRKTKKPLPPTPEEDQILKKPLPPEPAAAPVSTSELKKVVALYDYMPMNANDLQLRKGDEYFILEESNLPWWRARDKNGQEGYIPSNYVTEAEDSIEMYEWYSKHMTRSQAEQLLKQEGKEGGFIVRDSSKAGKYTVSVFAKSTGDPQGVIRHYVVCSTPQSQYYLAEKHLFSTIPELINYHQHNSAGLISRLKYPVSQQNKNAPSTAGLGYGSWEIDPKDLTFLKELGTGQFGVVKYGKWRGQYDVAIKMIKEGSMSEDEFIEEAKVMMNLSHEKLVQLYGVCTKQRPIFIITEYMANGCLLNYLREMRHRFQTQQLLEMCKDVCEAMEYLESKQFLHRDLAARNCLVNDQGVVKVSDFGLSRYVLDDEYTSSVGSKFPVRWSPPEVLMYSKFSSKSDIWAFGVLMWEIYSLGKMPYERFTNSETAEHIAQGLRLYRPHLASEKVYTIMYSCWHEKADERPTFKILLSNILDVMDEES

Question: Which IC50 does the source give for `CCC(=O)Nc1cccc(Oc2ccncc2-c2ccc(Oc3ccccc3)cc2)c1` here?
Answer: > 1 µM

Question: `CCC(=O)Nc1cccc(Oc2ccnc(C(N)=O)c2-c2ccc(Oc3ccccc3)cc2)c1` was tested. Which IC50 did it give?
Answer: > 1 µM

Question: `C=CC(=O)Nc1cccc(Oc2ncnc(N)c2-c2cnn(Cc3cccc(S(C)(=O)=O)c3)c2)c1` was tested. Which IC50 did it give?
Answer: < 1 µM

Question: For `C=CC(=O)Nc1cccc(Oc2ncnc(N)c2-c2ccc(Oc3ccccc3)cc2)c1F`, which IC50 is on record?
Answer: < 0.1 µM

Question: `C=CC(=O)Nc1cncc(Oc2ncnc(N)c2-c2ccc(Oc3ccc(C#N)cc3)cc2)c1` was tested. Which IC50 did it give?
Answer: < 1 µM

Question: With `N#CC1(C(=O)Nc2cccc(-c3c(N)ncnc3Oc3ccc(Oc4ccccc4)cc3)c2)CC1` as the compound, how does the IC50 read?
Answer: > 1 µM

Question: Which IC50 does the source give for `Nc1ncnc(NC2CC3(C2)CN(S(=O)(=O)CCCl)C3)c1-c1ccc(Oc2ccccc2)cc1` here?
Answer: < 0.1 µM

Question: With `C=CC(=O)N1CC2(CC(Nc3ncnc(N)c3-c3cnn(Cc4ccncc4)c3)C2)C1` as the compound, how does the IC50 read?
Answer: > 1 µM
